From US20110212484A1, “In Vitro Model of Focal Ischemia” (priority 2008, published 2011)

What was measured:
rat brain slices = test: In vitro focal ischemia (focal OGD) in brain slices, TTC staining of infarct area; assay type: cell-based; conditions: 100 μM lidocaine added to OGD media, focally applied 2 hours at 100 μL/min, TTC stain
Text: In order to mimic in vivo focal ischemia in the present in vitro system, oxygen-glucose deprived (OGD) medium was focally applied to a small area (0.25-0.5 mm wide or 5-10% of cortex) within the cortex of a brain slice, or within a slice of liver or heart tissue. […] Oxygen was displaced from the media by bubbling with 95% N2 and 5% CO2. […] Nozzle of the microperfusion system was made from a 23 gauge stainless steel tube and was mounted to a micromanipulator in order to ensure accurate placement. Using the micromanipulator the nozzle was lowered until it was just touching the surface of the slice. […] In FIG. 1C, OGD solution was focally applied to the slice for 1 hour. […] In FIG. 1D, OGD solution was focally applied to the slice for 2 hours.

[1] = system: cortical neurons adjacent to the region of focal OGD perfusion; test: Penumbra region of focal ischemia: intracellular recordings of membrane potential adjacent to the focal OGD perfusion; assay type: cell-based, rat
Text: In order to mimic in vivo focal ischemia in the present in vitro system, oxygen-glucose deprived (OGD) medium was focally applied to a small area (0.25-0.5 mm wide or 5-10% of cortex) within the cortex of a brain slice, or within a slice of liver or heart tissue. […] The OGD medium for liver and heart slices was deoxygenated, glucose-free Krebs solution. Oxygen was displaced from the media by bubbling with 95% N2 and 5% CO2. […] Nozzle of the microperfusion system was made from a 23 gauge stainless steel tube and was mounted to a micromanipulator in order to ensure accurate placement. Using the micromanipulator the nozzle was lowered until it was just touching the surface of the slice.
OGD solution was focally perfused onto rat brain slices bathed in oxygenated aCSF solution. […] A representative recording of membrane potential is depicted in FIG. 5A. Focal perfusion of OGD caused neurons outside the region of perfusion to progressively depolarize. When edaravone (100 μM) was added to the OGD media this depolarization was attenuated. This is reflected in the mean data (FIG. 5B). Percentage neuronal survival after 75 minutes is reflected in FIG. 5C. Neurons were considered “dead” if they became irreversibly depolarized to approximately 0 mV. The addition of 100 μM edaravone doubled neuronal survival from OGD. […] In FIG. 5 the * denotes p<0.05.

cortical neurons = test: Focal glutamate perfusion of brain slices, intracellular recordings of membrane potential; conditions: aCSF containing 20 mM glutamate focally applied at 100 μL/min, neurons within the region of focal perfusion

For CCN(CC)CC(=O)Nc1c(C)cccc1C [Lidocaine, lidocaine], the “area of cell death caused by OGD” value (rat brain slices) was “reduced the area of cell death”.

CC1=NN(c2ccccc2)C(=O)C1 [edaravone] was tested, and the “progressive depolarization of neurons outside the region of perfusion” value ([1]; 100 μM edaravone added to OGD media, approximately 0.9 mm from focal perfusion) was “attenuated” and the “neuronal survival from OGD” value ([1]; 100 μM edaravone, after 75 minutes, penumbra region) was “doubled”.

In the case of N[C@@H](CCC(=O)O)C(=O)O [glutamate], the “membrane potential of neuron (depolarization)” value (cortical neurons) is reported as “caused a rapid depolarization of the neuron”.
